Where a name gives a salt, the structure may show the parent alone. Read-outs that look alike come from different tables or passages of the source.
Key:
Test in all cases: AK assay 384-well format, Prestwick library screening
E. faecium = format: cell-based, Enterococcus faecium; conditions: 50 μM final drug concentration; for fold induction at 50 µM: Enterococcus faecium, 3 h
[1] = tested on: S. aureus strain USA300-0114; format: cell-based, Staphylococcus aureus; conditions: 50 μM final drug concentration; for fold induction at 50 µM: Staphylococcus aureus, USA300, 3 h
K. pneumoniae = format: cell-based, Klebsiella pneumoniae; conditions: 50 μM final drug concentration; for fold induction at 50 µM: Klebsiella pneumoniae, 3 h
[2] = tested on: A. baumannii strain 98-37-09; format: cell-based, Acinetobacter baumannii; conditions: 50 μM final drug concentration; for fold induction at 50 µM: Acinetobacter baumannii, 983709, 3 h
P. aeruginosa = format: cell-based, Pseudomonas aeruginosa; conditions: 50 μM final drug concentration; for fold induction at 50 µM: Pseudomonas aeruginosa, 3 h
E. cloacae = format: cell-based, Enterobacter cloacae; conditions: 50 μM final drug concentration; for fold induction at 50 µM: Enterobacter cloacae, 3 h
E. coli = format: cell-based, Escherichia coli; conditions: 50 μM final drug concentration; for fold induction at 50 µM: Escherichia coli, 3 h
[3] = planktonic, cutoff for positive 3-fold increase, read-out: AK-based Prestwick Library Screening Results, E. faecium (fold increase in extracellular AK activity)
[4] = planktonic, cutoff for positive 3-fold increase, read-out: AK-based Prestwick Library Screening Results, S. aureus (fold increase in extracellular AK activity)
[5] = planktonic, cutoff for positive 3-fold increase, read-out: AK-based Prestwick Library Screening Results, K. pneumoniae (fold increase in extracellular AK activity)
[6] = planktonic, cutoff for positive 3-fold increase, read-out: AK-based Prestwick Library Screening Results, A. baumannii (fold increase in extracellular AK activity)
[7] = planktonic, cutoff for positive 3-fold increase, read-out: AK-based Prestwick Library Screening Results, P. aeruginosa (fold increase in extracellular AK activity)
[8] = planktonic, cutoff for positive 3-fold increase, read-out: AK-based Prestwick Library Screening Results, E. cloacae (fold increase in extracellular AK activity)
[9] = planktonic, cutoff for positive 3-fold increase, read-out: AK-based Prestwick Library Screening Results, E. coli (fold increase in extracellular AK activity)
[10] = planktonic, cutoff for positive-scoring molecules 3-fold increase

CC(=O)[C@H]1CC[C@H]2[C@@H]3CCC4=CC(=O)CC[C@]4(C)[C@H]3CC[C@]12C [Progesterone]
fold induction at 50 µM (E. faecium; [3]): 1.1 | fold induction at 50 µM [1, 4]: 1.1 | fold induction at 50 µM (K. pneumoniae; [5]): 1.1 | fold induction at 50 µM [2, 6]: 1.1 | fold induction at 50 µM (P. aeruginosa; [7]): 1 | fold induction at 50 µM (E. cloacae; [8]): 1.7 | fold induction at 50 µM (E. coli; [9]): 1

O.Oc1cc(O)c2c(c1)OC(c1ccc(O)c(O)c1)C(O)C2 (racemic) [Catechin-(+,−) hydrate]
AK-based Prestwick Library Screening Results, E. faecium (fold increase in extracellular AK activity) (E. faecium; [10]): 0.9 | AK-based Prestwick Library Screening Results, S. aureus (fold increase in extracellular AK activity) [1, 10]: 0.7 | AK-based Prestwick Library Screening Results, K. pneumoniae (fold increase in extracellular AK activity) (K. pneumoniae; [10]): 0.6 | AK-based Prestwick Library Screening Results, A. baumannii (fold increase in extracellular AK activity) [2, 10]: 0.7 | AK-based Prestwick Library Screening Results, P. aeruginosa (fold increase in extracellular AK activity) (P. aeruginosa; [10]): 0.6 | AK-based Prestwick Library Screening Results, E. cloacae (fold increase in extracellular AK activity) (E. cloacae; [10]): 1.0 | AK-based Prestwick Library Screening Results, E. coli (fold increase in extracellular AK activity) (E. coli; [10]): 0.7

Br.C[N+]1([O-])[C@@H]2CC(OC(=O)[C@H](CO)c3ccccc3)C[C@H]1[C@@H]1O[C@@H]12 (stereo partly drawn) [Scopolamin-N-oxide hydrobromide]
AK-based Prestwick Library Screening Results: E. faecium (increase in extracellular AK activity) (E. faecium; planktonic E. faecium, 384-well, […]): 1.1 | AK-based Prestwick Library Screening Results: S. aureus (increase in extracellular AK activity) ([1]; planktonic S. aureus, 384-well, […]): 1.4 | AK-based Prestwick Library Screening Results: K. pneumoniae (increase in extracellular AK activity) (K. pneumoniae; planktonic K. pneumoniae, 384-well, […]): 1.2 | AK-based Prestwick Library Screening Results: A. baumannii (increase in extracellular AK activity) ([2]; planktonic A. baumannii, 384-well, […]): 1.4 | AK-based Prestwick Library Screening Results: P. aeruginosa (increase in extracellular AK activity) (P. aeruginosa; planktonic P. aeruginosa, 384-well, […]): 1.3 | AK-based Prestwick Library Screening Results: E. cloacae (increase in extracellular AK activity) (E. cloacae; planktonic E. cloacae, 384-well, […]): 1.5 | AK-based Prestwick Library Screening Results: E. coli (increase in extracellular AK activity) (E. coli; planktonic E. coli, 384-well, […]): 1.2

CC(=O)Nc1nnc(S(N)(=O)=O)s1 [Acetazolamide]
fold induction at 50 µM (E. faecium; 384-well format, cutoff for positive-scoring molecules 3-fold increase, read-out: AK-based Prestwick Library Screening Results, E. faecium (increase in extracellular AK activity)): 0.9 | fold induction at 50 µM ([1]; 384-well format, cutoff for positive-scoring molecules 3-fold increase, read-out: AK-based Prestwick Library Screening Results, S. aureus (increase in extracellular AK activity)): 0.4 | fold induction at 50 µM (K. pneumoniae; 384-well format, cutoff for positive-scoring molecules 3-fold increase, read-out: AK-based Prestwick Library Screening Results, K. pneumoniae (increase in extracellular AK activity)): 0.4 | fold induction at 50 µM ([2]; 384-well format, cutoff for positive-scoring molecules 3-fold increase, read-out: AK-based Prestwick Library Screening Results, A. baumannii (increase in extracellular AK activity)): 0.4 | fold induction at 50 µM (P. aeruginosa; 384-well format, cutoff for positive-scoring molecules 3-fold increase, read-out: AK-based Prestwick Library Screening Results, P. aeruginosa (increase in extracellular AK activity)): 0.3 | fold induction at 50 µM (E. cloacae; 384-well format, cutoff for positive-scoring molecules 3-fold increase, read-out: AK-based Prestwick Library Screening Results, E. cloacae (increase in extracellular AK activity)): 0.3 | fold induction at 50 µM (E. coli; 384-well format, cutoff for positive-scoring molecules 3-fold increase, read-out: AK-based Prestwick Library Screening Results, E. coli (increase in extracellular AK activity)): 0.4

Cc1c(NC(=O)c2cccnc2)c(=O)n(-c2ccccc2)n1C [Nifenazone]
fold induction at 50 µM (E. faecium; planktonic E. faecium, 384-well, cutoff for positive-scoring molecules 3-fold increase, read-out: AK-based Prestwick Library Screening Results: E. faecium (increase in extracellular AK activity)): 1 | fold induction at 50 µM ([1]; planktonic S. aureus, 384-well, cutoff for positive-scoring molecules 3-fold increase, read-out: AK-based Prestwick Library Screening Results: S. aureus (increase in extracellular AK activity)): 1.3 | fold induction at 50 µM (K. pneumoniae; planktonic K. pneumoniae, 384-well, cutoff for positive-scoring molecules 3-fold increase, read-out: AK-based Prestwick Library Screening Results: K. pneumoniae (increase in extracellular AK activity)): 1 | fold induction at 50 µM ([2]; planktonic A. baumannii, 384-well, cutoff for positive-scoring molecules 3-fold increase, read-out: AK-based Prestwick Library Screening Results: A. baumannii (increase in extracellular AK activity)): 1.6 | fold induction at 50 µM (P. aeruginosa; planktonic P. aeruginosa, 384-well, cutoff for positive-scoring molecules 3-fold increase, read-out: AK-based Prestwick Library Screening Results: P. aeruginosa (increase in extracellular AK activity)): 1.2 | fold induction at 50 µM (E. cloacae; planktonic E. cloacae, 384-well, cutoff for positive-scoring molecules 3-fold increase, read-out: AK-based Prestwick Library Screening Results: E. cloacae (increase in extracellular AK activity)): 1.2 | fold induction at 50 µM (E. coli; planktonic E. coli, 384-well, cutoff for positive-scoring molecules 3-fold increase, read-out: AK-based Prestwick Library Screening Results: E. coli (increase in extracellular AK activity)): 1.2

Pyrantel tartrate
AK-based Prestwick Library Screening Results: E. faecium (increase in extracellular AK activity) (E. faecium; planktonic E. faecium, 384-well, cutoff for positive-scoring molecules 3-fold increase): 1.1 | AK-based Prestwick Library Screening Results: S. aureus (increase in extracellular AK activity) ([1]; planktonic S. aureus, 384-well, cutoff for positive-scoring molecules 3-fold increase): 1.2 | AK-based Prestwick Library Screening Results: K. pneumoniae (increase in extracellular AK activity) (K. pneumoniae; planktonic K. pneumoniae, 384-well, cutoff for positive-scoring molecules 3-fold increase): 0.9 | AK-based Prestwick Library Screening Results: A. baumannii (increase in extracellular AK activity) ([2]; planktonic A. baumannii, 384-well, cutoff for positive-scoring molecules 3-fold increase): 1.1 | AK-based Prestwick Library Screening Results: P. aeruginosa (increase in extracellular AK activity) (P. aeruginosa; planktonic P. aeruginosa, 384-well, cutoff for positive-scoring molecules 3-fold increase): 1.2 | AK-based Prestwick Library Screening Results: E. cloacae (increase in extracellular AK activity) (E. cloacae; planktonic E. cloacae, 384-well, cutoff for positive-scoring molecules 3-fold increase): 1.4 | AK-based Prestwick Library Screening Results: E. coli (increase in extracellular AK activity) (E. coli; planktonic E. coli, 384-well, cutoff for positive-scoring molecules 3-fold increase): 1.3

C#CCN(C)CCCOc1ccc(Cl)cc1Cl [Clorgyline hydrochloride]
fold induction at 50 µM (E. faecium; planktonic E. faecium, cutoff for positive-scoring molecules 3-fold increase, read-out: AK-based Prestwick Library Screening Results, E. faecium (increase in extracellular AK activity)): 0.7 | fold induction at 50 µM ([1]; planktonic S. aureus, cutoff for positive-scoring molecules 3-fold increase, read-out: AK-based Prestwick Library Screening Results, S. aureus (increase in extracellular AK activity)): 0.5 | fold induction at 50 µM (K. pneumoniae; planktonic K. pneumoniae, cutoff for positive-scoring molecules 3-fold increase, read-out: AK-based Prestwick Library Screening Results, K. pneumoniae (increase in extracellular AK activity)): 0.5 | fold induction at 50 µM ([2]; planktonic A. baumannii, cutoff for positive-scoring molecules 3-fold increase, read-out: AK-based Prestwick Library Screening Results, A. baumannii (increase in extracellular AK activity)): 0.6 | fold induction at 50 µM (P. aeruginosa; planktonic P. aeruginosa, cutoff for positive-scoring molecules 3-fold increase, read-out: AK-based Prestwick Library Screening Results, P. aeruginosa (increase in extracellular AK activity)): 0.7 | fold induction at 50 µM (E. cloacae; planktonic E. cloacae, cutoff for positive-scoring molecules 3-fold increase, read-out: AK-based Prestwick Library Screening Results, E. cloacae (increase in extracellular AK activity)): 0.8 | fold induction at 50 µM (E. coli; planktonic E. coli, cutoff for positive-scoring molecules 3-fold increase, read-out: AK-based Prestwick Library Screening Results, E. coli (increase in extracellular AK activity)): 0.7

CC[C@H]1OC(=O)[C@H](C)[C@@H](O[C@H]2C[C@@](C)(OC)[C@@H](O)[C@H](C)O2)[C@H](C)[C@@H](O[C@@H]2O[C@H](C)C[C@H](N(C)C)[C@H]2O)[C@](C)(O)C[C@@H](C)/C(=N\OCOCCOC)[C@H](C)[C@@H](O)[C@]1(C)O [Roxithromycin]
fold induction at 50 µM (E. faecium; cutoff for positive-scoring molecules 3-fold increase, read-out: AK-based Prestwick Library Screening Results, E. faecium (fold increase in extracellular AK activity)): 1.4 | fold induction at 50 µM ([1]; cutoff for positive-scoring molecules 3-fold increase, read-out: AK-based Prestwick Library Screening Results, S. aureus (fold increase in extracellular AK activity)): 2.8 | fold induction at 50 µM (K. pneumoniae; cutoff for positive-scoring molecules 3-fold increase, read-out: AK-based Prestwick Library Screening Results, K. pneumoniae (fold increase in extracellular AK activity)): 1.1 | fold induction at 50 µM ([2]; cutoff for positive-scoring molecules 3-fold increase, read-out: AK-based Prestwick Library Screening Results, A. baumannii (fold increase in extracellular AK activity)): 1 | fold induction at 50 µM (P. aeruginosa; cutoff for positive-scoring molecules 3-fold increase, read-out: AK-based Prestwick Library Screening Results, P. aeruginosa (fold increase in extracellular AK activity)): 0.9 | fold induction at 50 µM (E. cloacae; cutoff for positive-scoring molecules 3-fold increase, read-out: AK-based Prestwick Library Screening Results, E. cloacae (fold increase in extracellular AK activity)): 1.5 | fold induction at 50 µM (E. coli; cutoff for positive-scoring molecules 3-fold increase, read-out: AK-based Prestwick Library Screening Results, E. coli (fold increase in extracellular AK activity)): 0.9

CC1=CC(=O)c2ccccc2C1=O [Menadione]
fold induction at 50 µM (E. faecium; [3]): 1.1 | fold induction at 50 µM [1, 4]: 1.4 | fold induction at 50 µM (K. pneumoniae; [5]): 1 | fold induction at 50 µM [2, 6]: 1 | fold induction at 50 µM (P. aeruginosa; [7]): 1.2 | fold induction at 50 µM (E. cloacae; [8]): 1.5 | fold induction at 50 µM (E. coli; [9]): 1

— patent publication US10004701B2, “Methods and compositions for treating infection” (UNIVERSITY OF ROCHESTER, priority 2012, dated 2018)
